Literature values in patent US20070275871A1 (BIOREXIS TECHNOLOGY, INC., priority 2003, published 2007).
Like-named read-outs stand apart in the source and are kept apart here.

Key:
[1] = biological target: T1, extracellular domain of EPO receptor (Homo sapiens, UniProt P19235)
T1 sequence (P19235 25-250 limits assumed): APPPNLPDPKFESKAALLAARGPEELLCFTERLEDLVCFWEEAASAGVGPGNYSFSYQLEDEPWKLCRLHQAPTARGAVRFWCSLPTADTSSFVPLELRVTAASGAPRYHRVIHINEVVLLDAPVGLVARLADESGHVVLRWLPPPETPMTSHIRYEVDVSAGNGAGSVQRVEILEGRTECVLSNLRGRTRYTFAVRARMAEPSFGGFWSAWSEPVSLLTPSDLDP

[2] = test system: cell lines engineered to be responsive to EPO
EPO receptor [3] = biological target: T2, EPO receptor (Homo sapiens, UniProt P19235)
T2 sequence (P19235 25-508): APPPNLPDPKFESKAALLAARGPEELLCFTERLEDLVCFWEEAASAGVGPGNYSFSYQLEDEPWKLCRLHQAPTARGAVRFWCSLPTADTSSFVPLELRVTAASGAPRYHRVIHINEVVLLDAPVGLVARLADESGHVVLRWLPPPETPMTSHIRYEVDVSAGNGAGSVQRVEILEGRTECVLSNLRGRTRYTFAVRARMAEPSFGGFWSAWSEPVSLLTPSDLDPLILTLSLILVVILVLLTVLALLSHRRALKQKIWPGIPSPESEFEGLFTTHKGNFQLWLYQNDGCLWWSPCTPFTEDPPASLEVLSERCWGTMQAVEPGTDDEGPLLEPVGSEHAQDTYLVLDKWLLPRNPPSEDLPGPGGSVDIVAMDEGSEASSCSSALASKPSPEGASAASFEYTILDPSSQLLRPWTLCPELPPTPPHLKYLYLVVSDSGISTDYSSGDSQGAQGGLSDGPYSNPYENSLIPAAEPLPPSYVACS

[4] = test system: nascent red blood cell production; settings: mice, two different in vivo assays of nascent red blood cell production
EPO receptor [5] = biological target: T2, EPO receptor; settings: N- and C-terminal deletions of EMP-1

With CRIGPITWVC as the sequence, how does the Kd ([1]; EPO domain-weak-binding consensus sequence, read-out: Kd) read?
Its Kd is 10 mM.

With GGTYSCHFGPLTWVCKPQGG [EMP-1] as the sequence, how does the cellular proliferation [2] read?
The cellular proliferation was “cause cellular proliferation”.

What about the “cascade of phosphorylation events and cell cycle progression” value (EPO responsive cells) of the same sequence?
Its value is “induce a similar cascade of phosphorylation events and cell cycle progression”.

What about the “competition with EPO in receptor binding assays” value (EPO receptor [3]) of the same sequence?
The value was “competes with EPO”.

What about the erythropoietic effects [4] of the same sequence?
The erythropoietic effects was “significant erythropoietic effects”.

And the Kd ([1]; read-out: affinity (Kd))?
The Kd was 0.0002 mM.

For YSCHFGPLTWVCK [EMP-20], which “activity in the assays for EPO mimetic action” value (EPO receptor [5]) is on record?
The value was “minimal active peptide”.
